# Test results as given in US5998435A, “Use of a tachykinin antagonist for the manufacture of a medicament for the treatment of emesis” (priority 1998, dated 1999).
# Entries after “also recorded” stand apart in the source; their conditions may differ. Read-outs that look alike come from different tables or passages of the source.
# Tests used:
# cisplatin-induced emesis [1] = experiment: Cisplatin-induced acute emesis in the ferret; type: in vivo
# From the text: Adult male albino Fitch ferrets (>1 kg weight) were individually housed with free access to food (SDS Diet "C", Special Diet Services Ltd, Essex, U.K.). Thirty minutes prior to the commencement of the studies, the ferrets were presented with 100 g of commercially available tinned cat food.
# [2] = Blood pressure and heart rate of anaesthetized guinea-pigs; type: in vivo, guinea-pig; settings: 0.1-1.0 mg/kg i.v.
# NK1 recognition sites [3] = molecular target: NK1 recognition sites (Mustela putorius, UniProt M3YAE5); experiment: NK1 binding, ferret
# [4] = test system: copper sulphate-induced emesis; experiment: Copper sulphate-induced emesis in the ferret; settings: Mustela putorius, 2 h, read-out: MED, copper sulphate-induced emesis
# NK1 recognition sites [5] = molecular target: T1, NK1 recognition sites (Mesocricetus auratus, UniProt A0A1U7QPR6); experiment: NK1 binding, hamster brain
# T1 construct: NK1 recognition sites present in human cell line, guinea pig, dog, ferret, and hamster brain; from tissue; host or cells: hamster brain
# cisplatin-induced emesis [6] = settings: cisplatin 5 mg/kg i.p.; The Compound 10 mg/kg or ondansetron 1 mg/kg i.p. three times a day
# [7] = Brain penetration in the rat using HPLC assay; type: in vivo; settings: for Tmax: read-out: time of highest brain concentration (converted);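 on % Dose in Brain: IV 4.5 mg/kg via tail vein or PO 21.4 mg/kg by gavage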;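 on amount in brain: IV 4.5 mg/kg via tail vein or PO 21.4 mg/kg by gavage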
# Method: Three rats were used for each time point. Prior to blood and brain sampling, rats were anesthetized with ether. Blood samples were collected by cardiac puncture. After transcardiac perfusion with normal saline, whole brains were collected. Plasma and brain samples were analyzed using liquid chromatographic florescence detection methods. […] Total amount in brain at these times was respectively 2.5 and 0.04 μg (Tables 2 and 13). Brain to plasma concentration ratio after IV administration was highest (1.8) at 15 minutes and then decreased to a steady value approximately 0.5 at later postdose times (Table 2).
# [8] = test system: apomorphine-induced emesis; experiment: Apomorphine-induced emesis in the ferret; settings: Mustela putorius, 1 h, read-out: MED, apomorphine-induced emesis
# [9] = Side effect liability: sedation or ataxia in the mouse; type: in vivo; settings: up to 100 mg/kg s.c.
# [10] = Side effect liability: sedation or ataxia in the hamster; type: in vivo; settings: up to 100 mg/kg s.c.
# [11] = Pharmacokinetics and oral bioavailability in the rat; type: in vivo; settings: plasma; for Cmax: fasted male Wistar rats; for AUC(0-inf): read-out: AUC zero to infinite time; for half-life: read-out: t1/2 terminal elimination half-life (converted); for clearance: read-out: Cl total systemic clearance; for Vd: read-out: Vd steady-state volume of distribution
# Method: 0.5% methyl cellulose, and nanosystem vehicle, The drug was administered either PO by gavage or IV via jugular vein. Blood samples were drawn from jugular vein cannulac into syringes containing heparin before dosing and at different times up to 24 hours postdose. Plasma was harvested by centrifugation and stored at -20° C. until analysis. Plasma samples were analyzed for The Compound using a validated liquid chromatographic method.
# [12] = test system: vehicle-induced emetic response; experiment: PEG-200 vehicle-induced emetic response in the ferret; type: in vivo; settings: 10 mg/kg; PEG-200 1 mL/kg i.p.
# pancreatic amylase = experiment: Secretion of pancreatic amylase in the rat; type: in vivo; settings: 0.01-10 mg/kg i.v.
# NK1 recognition sites (Mustela putorius, UniProt M3YAE5), sequence (M3YAE5 1-407): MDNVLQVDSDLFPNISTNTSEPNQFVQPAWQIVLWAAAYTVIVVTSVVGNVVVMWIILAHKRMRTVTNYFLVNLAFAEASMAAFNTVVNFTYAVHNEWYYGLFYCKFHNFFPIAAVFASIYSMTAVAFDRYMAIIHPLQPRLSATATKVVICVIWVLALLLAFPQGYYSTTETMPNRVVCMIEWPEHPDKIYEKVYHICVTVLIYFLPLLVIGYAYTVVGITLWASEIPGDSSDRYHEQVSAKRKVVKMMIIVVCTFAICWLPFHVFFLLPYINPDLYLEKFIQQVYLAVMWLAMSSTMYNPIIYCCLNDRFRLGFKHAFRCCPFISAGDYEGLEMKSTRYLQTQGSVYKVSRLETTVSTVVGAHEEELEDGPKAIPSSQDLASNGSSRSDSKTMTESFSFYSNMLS
# T1 sequence (A0A1U7QPR6 1-407): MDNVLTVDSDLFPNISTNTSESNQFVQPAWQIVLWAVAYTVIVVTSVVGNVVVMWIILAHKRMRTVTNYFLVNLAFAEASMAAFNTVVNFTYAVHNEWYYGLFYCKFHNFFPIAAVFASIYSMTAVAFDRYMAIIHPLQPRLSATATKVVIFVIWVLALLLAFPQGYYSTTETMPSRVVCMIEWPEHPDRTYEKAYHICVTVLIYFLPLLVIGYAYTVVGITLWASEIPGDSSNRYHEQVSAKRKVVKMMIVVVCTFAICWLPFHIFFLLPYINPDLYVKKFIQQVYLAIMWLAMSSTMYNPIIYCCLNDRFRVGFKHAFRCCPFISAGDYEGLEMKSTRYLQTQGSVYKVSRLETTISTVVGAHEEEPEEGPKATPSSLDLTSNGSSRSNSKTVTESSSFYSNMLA
smiles,measurement,setting,value
"C[C@H](NC(=O)[C@@](C)(Cc1c[nH]c2ccccc12)NC(=O)OCc1cc2ccccc2o1)c1ccccc1 [The Compound, [R,S]-[2-(1H-Indol-3-yl)-1-methyl-1-(1-phenyl-ethylcarbamoyl)-ethyl]-carbamic acid benzofuran-2-ylmethyl ester]",antagonism of the emetic response,"cisplatin-induced emesis [1]; 30 mg/kg i.p., cisplatin 10 mg/kg i.p.",complete antagonism; also recorded: completely antagonized
same,minimal effective dose,"cisplatin-induced emesis [1]; Mustela putorius, i.p. in PEG-200, 3-30 mg/kg, 1 hour before cisplatin 10 mg/kg i.p., 4-hour observation, read-out: minimum effective dose, frequency of vomiting and retching",3 mg/kg
same,blood pressure,[2],failed to affect
same,heart rate,[2],failed to affect
same,affinity to NK1 recognition sites,NK1 recognition sites [3],nanamolar affinity
same,minimal effective dose,[4],30 mg/kg
same,affinity to NK1 recognition sites,NK1 recognition sites [5],nanamolar affinity
same,delayed emesis during the 3 days (3-72 hours),cisplatin-induced emesis [6],completely blocked
same,retching and vomiting during the first 3 hours of the emetic response (acute),cisplatin-induced emesis [6],completely blocked
same,total amount in brain,"[7]; IV 4.5 mg/kg, 15 minutes",2.5 µg
same,Brain Conc. (BC),"[7]; IV bolus 4.5 mg/kg in PEG-400/EtOH/Water, 0.25 h, 4.5 mg/kg, 15 min",1448 ± 456 ng/g
same,% Dose in Brain,"[7]; IV bolus 4.5 mg/kg, 0.25 h",0.235 ± 0.051%
same,Amount in Brain,"[7]; IV bolus 4.5 mg/kg, 0.25 h",2711 ± 668 ng
same,% Dose in Brain,"[7]; IV bolus 4.5 mg/kg, 2 h",0.0098%
same,Amount in Brain,"[7]; IV bolus 4.5 mg/kg, 2 h",114 ± 8.6 ng
same,% Dose in Brain,"[7]; IV bolus 4.5 mg/kg, 4 h",0.0033 ± 0.0003%
same,Amount in Brain,"[7]; IV bolus 4.5 mg/kg, 4 h",40 ± 3.4 ng
same,% Dose in Brain,"[7]; IV bolus 4.5 mg/kg, 8 h",0.0078%
same,Amount in Brain,"[7]; IV bolus 4.5 mg/kg, 8 h",9.6 ng
same,% Dose in Brain,"[7]; PO 21.4 mg/kg, 0.25 h",0.00095 ± 0.00053%
same,Amount in Brain,"[7]; PO 21.4 mg/kg, 0.25 h",57 ± 31 ng
same,% Dose in Brain,"[7]; PO 21.4 mg/kg, 2 h",0.00291%
same,Amount in Brain,"[7]; PO 21.4 mg/kg, 2 h",189 ± 156 ng
same,total amount in brain,"[7]; PO 21.4 mg/kg, 2 hours",0.04 µg
same,% Dose in Brain,"[7]; PO 21.4 mg/kg, 4 h",0.0064%
same,Amount in Brain,"[7]; PO 21.4 mg/kg, 4 h",410 ± 333 ng
same,% Dose in Brain,"[7]; PO 21.4 mg/kg, 8 h",0.0013 ± 0.0012%
same,Amount in Brain,"[7]; PO 21.4 mg/kg, 8 h",81 ± 73 ng
same,% Dose in Brain,"[7]; PO 21.4 mg/kg, 12 h",0.00047 ± 0.00017%
same,Amount in Brain,"[7]; PO 21.4 mg/kg, 12 h",30 ng
same,Tmax,"[7]; brain, IV 4.5 mg/kg",0.25 h
same,Tmax,"[7]; brain, PO 21.4 mg/kg",2 h
same,Kp,"[7]; brain, iv, 4.5 mg/kg, IV 4.5 mg/kg, later postdose times, read-out: brain to plasma concentration ratio, steady value",~0.5
same,concentration at 0.25 h,"[7]; brain, iv, 4.5 mg/kg, IV bolus 4.5 mg/kg in PEG-400/EtOH/Water, 0.25 h, read-out: Brain Conc. (BC)",1400 ng/g
same,Kp at 0.25 h,"[7]; brain, iv, 4.5 mg/kg, IV bolus 4.5 mg/kg, 0.25 h, read-out: BC/PC Ratio",1.8
same,Kp at 2 h,"[7]; brain, iv, 4.5 mg/kg, IV bolus 4.5 mg/kg, 2 h, read-out: BC/PC Ratio",0.47 ± 0.11
same,concentration at 2 h,"[7]; brain, iv, 4.5 mg/kg, IV bolus 4.5 mg/kg, 2 h, read-out: Brain Conc. (BC)",57 ± 4.5 ng/g
same,Kp at 4 h,"[7]; brain, iv, 4.5 mg/kg, IV bolus 4.5 mg/kg, 4 h, read-out: BC/PC Ratio",0.47 ± 0.05
same,concentration at 4 h,"[7]; brain, iv, 4.5 mg/kg, IV bolus 4.5 mg/kg, 4 h, read-out: Brain Conc. (BC)",20 ± 1.9 ng/g
same,concentration at 8 h,"[7]; brain, iv, 4.5 mg/kg, IV bolus 4.5 mg/kg, 8 h, N = 1, read-out: Brain Conc. (BC)",4.8 ng/g
same,Kp at 8 h,"[7]; brain, iv, 4.5 mg/kg, IV bolus 4.5 mg/kg, 8 h, read-out: BC/PC Ratio",0.52
same,concentration at 0.25 h,"[7]; brain, po, 21.4 mg/kg, PO 21.4 mg/kg in PEG-400/EtOH/Water, 0.25 h, read-out: Brain Conc. (BC)",31 ± 17 ng/g
same,Kp at 0.25 h,"[7]; brain, po, 21.4 mg/kg, PO 21.4 mg/kg, 0.25 h, read-out: BC/PC Ratio",0.27 ± 0.06
same,Kp at 2 h,"[7]; brain, po, 21.4 mg/kg, PO 21.4 mg/kg, 2 h, read-out: BC/PC Ratio",0.3 ± 0.03
same,concentration at 2 h,"[7]; brain, po, 21.4 mg/kg, PO 21.4 mg/kg, 2 h, read-out: Brain Conc. (BC)",96 ± 79 ng/g
same,Kp at 4 h,"[7]; brain, po, 21.4 mg/kg, PO 21.4 mg/kg, 4 h, read-out: BC/PC Ratio",0.29 ± 0.09
same,concentration at 4 h,"[7]; brain, po, 21.4 mg/kg, PO 21.4 mg/kg, 4 h, read-out: Brain Conc. (BC)",212 ± 168 ng/g
same,Kp at 8 h,"[7]; brain, po, 21.4 mg/kg, PO 21.4 mg/kg, 8 h, read-out: BC/PC Ratio",0.33 ± 0.11
same,concentration at 8 h,"[7]; brain, po, 21.4 mg/kg, PO 21.4 mg/kg, 8 h, read-out: Brain Conc. (BC)",41 ± 38 ng/g
same,Kp at 12 h,"[7]; brain, po, 21.4 mg/kg, PO 21.4 mg/kg, 12 h, read-out: BC/PC Ratio",0.41 ± 0.27
same,concentration at 12 h,"[7]; brain, po, 21.4 mg/kg, PO 21.4 mg/kg, 12 h, read-out: Brain Conc. (BC)",15 ± 5 ng/g
same,penetration into the brain,[7]; following IV administration,fast
same,concentration at 0.25 h,"[7]; plasma, iv, 4.5 mg/kg, IV bolus 4.5 mg/kg, 0.25 h, read-out: Plasma Conc. (PC)",819 ± 87 ng/mL
same,concentration at 2 h,"[7]; plasma, iv, 4.5 mg/kg, IV bolus 4.5 mg/kg, 2 h, read-out: Plasma Conc. (PC)",124 ± 17 ng/mL
same,concentration at 4 h,"[7]; plasma, iv, 4.5 mg/kg, IV bolus 4.5 mg/kg, 4 h, read-out: Plasma Conc. (PC)",43 ± 5.6 ng/mL
same,concentration at 8 h,"[7]; plasma, iv, 4.5 mg/kg, IV bolus 4.5 mg/kg, 8 h, read-out: Plasma Conc. (PC)",5.6 ± 3.3 ng/mL
same,concentration at 12 h,"[7]; plasma, iv, 4.5 mg/kg, IV bolus 4.5 mg/kg, 12 h, read-out: Plasma Conc. (PC)",4 ± 1.1 ng/mL
same,concentration at 0.25 h,"[7]; plasma, po, 21.4 mg/kg, PO 21.4 mg/kg, 0.25 h, read-out: Plasma Conc. (PC)",126 ± 92 ng/mL
same,concentration at 2 h,"[7]; plasma, po, 21.4 mg/kg, PO 21.4 mg/kg, 2 h, read-out: Plasma Conc. (PC)",301 ± 244 ng/mL
same,concentration at 4 h,"[7]; plasma, po, 21.4 mg/kg, PO 21.4 mg/kg, 4 h, read-out: Plasma Conc. (PC)",642 ± 433 ng/mL
same,concentration at 8 h,"[7]; plasma, po, 21.4 mg/kg, PO 21.4 mg/kg, 8 h, read-out: Plasma Conc. (PC)",108 ± 80 ng/mL
same,concentration at 12 h,"[7]; plasma, po, 21.4 mg/kg, PO 21.4 mg/kg, 12 h, read-out: Plasma Conc. (PC)",45 ± 20 ng/mL
same,minimal effective dose,[8],30 mg/kg
same,ataxia,[9],failed to induce
same,sedation,[9],failed to induce
same,ataxia,[10],failed to induce
same,sedation,[10],failed to induce
same,Tmax,[11]; MC suspension PO 3.7 mg/kg,3.5 h
same,Cmax,[11]; MC suspension PO 3.7 mg/kg,15.1 ng/mL
same,bioavailability,"[11]; MC suspension PO 3.7 mg/kg, read-out: % F absolute oral bioavailability",4.1%
same,AUC(0-inf),[11]; MC suspension PO 3.7 mg/kg,107 ng·h/mL
same,half-life,[11]; MC suspension PO 3.7 mg/kg,2.8 h
same,AUC(0-inf),[11]; NANOSUSPENSION IV 4.6 mg/kg,2790 ng·h/mL
same,clearance,[11]; NANOSUSPENSION IV 4.6 mg/kg,27.8 mL/min/kg
same,Vd,[11]; NANOSUSPENSION IV 4.6 mg/kg,3.7 L/kg
same,half-life,[11]; NANOSUSPENSION IV 4.6 mg/kg,4.8 h
same,Tmax,[11]; NANOSUSPENSION PO 18.4 mg/kg,2.3 h
same,Cmax,[11]; NANOSUSPENSION PO 18.4 mg/kg,643 ng/mL
same,bioavailability,"[11]; NANOSUSPENSION PO 18.4 mg/kg, read-out: % F absolute oral bioavailability",47%
same,AUC(0-inf),[11]; NANOSUSPENSION PO 18.4 mg/kg,5220 ng·h/mL
same,half-life,[11]; NANOSUSPENSION PO 18.4 mg/kg,2.5 h
same,AUC(0-inf),[11]; PEG-400 solution IV 5 mg/kg,3560 ng·h/mL
same,clearance,[11]; PEG-400 solution IV 5 mg/kg,23.9 mL/min/kg
same,Vd,[11]; PEG-400 solution IV 5 mg/kg,3 L/kg
same,half-life,[11]; PEG-400 solution IV 5 mg/kg,3.5 h
same,Tmax,[11]; PEG-400 solution PO 20 mg/kg,5 h
same,Cmax,[11]; PEG-400 solution PO 20 mg/kg,774 ng/mL
same,bioavailability,"[11]; PEG-400 solution PO 20 mg/kg, read-out: % F absolute oral bioavailability",49%
same,AUC(0-inf),[11]; PEG-400 solution PO 20 mg/kg,6960 ng·h/mL
same,half-life,[11]; PEG-400 solution PO 20 mg/kg,3 h
same,bioavailability,"[11]; po, nanosuspension and PEG/EtOH/Water vehicles, read-out: absolute oral bioavailability",47 to 49%
same,antagonism of vehicle-induced emetic response,[12],completely antagonized
same,stimulation of secretion of pancreatic amylase,pancreatic amylase,failed
